CC50 and IC50 data for 15 compounds are collected here from patent publication US20040248877A1, “Polycyclic diazodioxide-based Bcl-2 protein antagonists and use thereof” (priority 2003, published 2004).

The test system of data set [1] is HL60, human leukemic cells expressing high Bcl-2 and low Bcl-XL levels. Nature of the data set: Acute cytotoxicity (apoptotic activity), Alamar Blue viability. It is filed as cell-based. On the procedure: (§1) The biological activity of the compounds provided herein were assessed in cellular system by the method similar to the one described by Amundson et al. (Amundson, S. A. et al, Cancer Research 2000, 60, 6101-6110), which is incorporated herein by reference in its entirety. The compounds were tested for acute cytotoxicity (apoptotic activity) using two human cancer cell lines expressing high levels of either Bcl-2 or Bcl-XL. HL60, human leukemic cells expressing high Bcl-2 and low Bcl-XL levels, and A549 human lung cells expressing low Bcl-2 and high Bcl-XL levels, were incubated with the compounds at concentrations between 0.5 and 1000 μg/mL for 4 hours at 37° C., 5% CO2. The number of viable cells were measured by mitochondrial transformation of Alamar Blue to a fluorescent dye. LC50 values for each test compound and controls are provided in the individual examples that follow.
(§2) The compounds provided herein were tested for acute cytoxicity (apoptotic activity) using two human cancer cell lines expressing high levels of either Bcl-2 or Bcl-XL. HL-60 cells expressing high Bcl-2 and low Bcl-XL levels, and A549 human lung cells expressing low Bcl-2 and high Bcl-XL levels (Amundson, S. A. et al. Cancer Research 2000, 60, 6101-6110) were incubated with the compounds at concentrations between […] for 4 hours at 37° C., 5% CO2. The number of viable cells were measured my mitochondrial transformation of Alamar Blue to a fluorescent dye. As negative controls, the compounds were tested against the cell lines with low levels of Bcl-2 expression, viz., MDA-453 cells (Enyedy, I. J. et al. J. Med. Chem. 2001, 44, 4313-4324). LC50 values for each compound and controls were determined.
On the technique in general: Alamar Blue is a resazurin reagent that responds to reducing activity.

In data set [2] the test system is A549 human lung cells expressing low Bcl-2 and high Bcl-XL levels. The data set is described as above. It is filed as cell-based. The method, then: as §1, §2
In a further data set the test system is cell. To be noted: cell line not specified; cited from earlier work.
The test system of a further data set is Bcl-2 and Bcl XL. Conditions: cited from earlier work.
Another data set addresses Bcl-XL (Homo sapiens, UniProt Q07817). To be noted: cited from earlier work.
Where [3] appears, read: Homo sapiens, HL-60, 4 h, read-out: LC 50 (μM) HL-60.
Setting [4] is: Homo sapiens, A549, 4 h, read-out: LC 50 (μM) A549.
[5] abbreviates: protein not specified, read-out: IC50 (FP).

Each structure is given as a SMILES string. pIC50: −log10 of the molar value. Like-named read-outs stand apart in the source and are kept apart here. A value given as a limit tells only on which side of the number the result lay.

Bcl-XL, sequence (Q07817 whole entry, species assumed): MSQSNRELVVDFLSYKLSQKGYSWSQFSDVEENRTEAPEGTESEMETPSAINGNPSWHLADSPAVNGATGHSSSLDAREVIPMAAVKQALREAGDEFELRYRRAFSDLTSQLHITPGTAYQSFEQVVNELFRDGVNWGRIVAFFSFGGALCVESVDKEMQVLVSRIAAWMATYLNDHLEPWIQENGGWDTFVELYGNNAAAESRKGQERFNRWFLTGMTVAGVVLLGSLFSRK

Turning to `[O-]/[N+]1=N/c2ccc(Oc3ccc(C(F)(F)F)cn3)cc2CCc2cc(Oc3ccc(C(F)(F)F)cn3)ccc21` [compound 18], the CC50 in data set [1] (setting [3]) and in data set [2] (setting [4]) was greater than 200 µM in each case.
As a reminder, the pIC50 is the IC50 on a negative log10 scale, so that one unit is a factor of ten. As for `CCCC[C@H]1C(=O)O[C@H](C)[C@H](NC(=O)c2cccc(NC=O)c2O)C(=O)O[C@@H](C)[C@@H]1OC(=O)CC(C)C` [Compound 2, Antimycin], the pIC50 with cell was 5.92; in the data set with Bcl-2 and Bcl XL (setting [5]), 5.60.
Turning to `[O-]/[N+]1=N/c2ccc(OC(F)F)cc2CCc2cc(OC(F)F)ccc21` [compound 16], the CC50 in data set [1] (setting [3]) and in data set [2] (setting [4]) was greater than 200 µM each time.
`[O-][N+]1=[N+]([O-])c2ccc(OC(F)F)cc2CCc2cc(OC(F)F)ccc21` [Example 2, dibenzo[c,g][1,2]diazocine, 2,9-bis(difluoromethoxy)-11,12-dihydro-5,6-dioxide]: the CC50 amounted to 18.5 µM in data set [1] and 298 µM in data set [2].
As for `O=C(Nc1cc(S(=O)(=O)c2ccc(Cl)cc2)ccc1Cl)c1cc(Cl)cc(I)c1O` [Compound 6], the pIC50 was roughly 4.52 in the data set on cell; 5.48 with Bcl-2 and Bcl XL (setting [5]). Further, the CC50 in data set [1] (setting [3]) and in data set [2] (setting [4]) was greater than 200 µM throughout.
In the case of `[O-][N+]1=[N+]([O-])c2ccc(OCC(F)(F)F)cc2CCc2cc(OCC(F)(F)F)ccc21` [Example 1, dibenzo[c,g][1,2]diazocine, 11,12-dihydro-2,9-bis(2,2,2-trifluoroethoxy)-, 5,6-dioxide], the CC50 in data set [1] (Homo sapiens, HL-60, 4 hours at 37° C., read-out: LC50 value in HL-60 cell line) is 26.1 µM; in data set [2] (Homo sapiens, A549, 4 hours at 37° C., read-out: LC50 value in A549 cell line), 80.9 µM.
With `CCS(=O)(=O)c1ccc2c(c1)CCc1cc(S(=O)(=O)CC)ccc1/[N+]([O-])=N\2` [compound 21], the CC50 in data set [1] (setting [3]) and in data set [2] (setting [4]) was greater than 200 µM throughout.
Consider `[O-]/[N+]1=N/c2ccc(OCc3ccccc3)cc2CCc2cc(OCc3ccccc3)ccc21` [compound 15], for which the CC50 in data set [1] (setting [3]) and in data set [2] (setting [4]) was greater than 200 µM each time.
Turning to `[O-]/[N+]1=N/c2ccc(F)cc2CCc2cc(F)ccc21` [compound 13], the CC50 in data set [1] (setting [3]) and in data set [2] (setting [4]) was greater than 200 µM in each case.
In the case of `Cc1cc2c(C(C)C)c(O)c(O)c(C=O)c2c(O)c1-c1c(C)cc2c(C(C)C)c(O)c(O)c(C=O)c2c1O` [Compound 1, Gossypol], the results for the pIC50 with cell and on Bcl-XL were 5.82 and 6.40, respectively.
Take `[O-][n+]1nc2ccccc2c2ccccc21` [compound 9]: the CC50 in data set [1] (setting [3]) and in data set [2] (setting [4]) was greater than 200 µM in each case.
As to `CC(C)C(C(=O)O)C1C(=O)/C(=C/c2ccc(Br)cc2)SC1=S` (stereo not shown) [Compound 5], the pIC50 was roughly 4.05 in the data set with cell; 5.62 with Bcl-2 and Bcl XL (setting [5]). Moreover, the CC50 in data set [1] (setting [3]) and in data set [2] (setting [4]) was greater than 200 µM in each case.
For the compound `CCOC(=O)OC(C#N)C1C=C(N)Oc2ccc(Br)cc21` (stereo not shown) [Compound 4], the pIC50 with cell is 4.74; with Bcl-2 and Bcl XL (setting [5]), 5.05. The CC50 in data set [1] (setting [3]) and in data set [2] (setting [4]) was greater than 200 µM throughout.
Take `CC(C)Cc1cc(-c2ccc(-c3ccc(OCC(=O)O)c(CC(C)C)c3)c(Cc3cccc4ccccc34)c2)ccc1CCC(=O)O` [Compound 7]: in the data set with Bcl-2 and Bcl XL (Bcl-2 antagonist designed by molecular modeling, read-out: IC50 value), the pIC50 is 6.94. Moreover, the CC50 in data set [1] (setting [3]) and in data set [2] (setting [4]) was greater than 200 µM each time.
Turning to `[O-]/[N+]1=N/c2ccc(Oc3ccc(C(F)(F)F)cn3)cc2CCc2ccccc21` [compound 19], the CC50 in data set [1] (setting [3]) and in data set [2] (setting [4]) was greater than 200 µM throughout.
